Where “and” joins values, the source holds several entries; their conditions need not be identical. Equal values may be shown once. Toxic doses and inconclusive results are not listed.
Test system: L1210 leukemia ip in BDF1 mice, survival T/C
Test: NCI In Vivo Anticancer Drug Screen. Data for tumor model L1210 Leukemia (intraperitoneal) in B6D2F1 (BDF1) mice
Conditions: endpoint: mean survival time, higher = longer survival
In short: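 Survival endpoint. Drug-treated group vs vehicle group, expressed as T divided by C. Tumor passaged by transplantation.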

## O=c1[nH]cc(N(CCCl)CCCl)c(=O)[nH]1
dose: 0.04 mg/kg/injection, schedule: Q01DX001 (ip), vehicle: carboxymethylcellulose (CMC)
  T/C: 106 % of control
dose: 0.05 mg/kg/injection, schedule: Q01DX Z (ip), vehicle: carboxymethylcellulose (CMC)
  T/C: 107 % of control
dose: 0.05 mg/kg/injection, schedule: Q#A X Z (ip), vehicle: carboxymethylcellulose (CMC)
  T/C: 101 % of control
dose: 0.07 mg/kg/injection, schedule: Q01DX001 (ip), vehicle: carboxymethylcellulose (CMC)
  T/C: 101 % of control
dose: 0.07 mg/kg/injection, schedule: Q03DX006 (ip), vehicle: carboxymethylcellulose (CMC)
  T/C: 123 % of control
dose: 0.09 mg/kg/injection, schedule: Q#A X Z (ip), vehicle: carboxymethylcellulose (CMC)
  T/C: 106 % of control
dose: 0.1 mg/kg/injection, schedule: Q01DX Z (ip), vehicle: carboxymethylcellulose (CMC)
  T/C: 102 % of control
dose: 0.1 mg/kg/injection, schedule: Q01DX Z (ip), vehicle: saline
  T/C: 157 % of control
dose: 0.13 mg/kg/injection, schedule: Q01DX001 (ip), vehicle: carboxymethylcellulose (CMC)
  T/C: 100 % of control
dose: 0.16 mg/kg/injection, schedule: Q07DX003 (ip), vehicle: carboxymethylcellulose (CMC)
  T/C: 108 % of control
dose: 0.19 mg/kg/injection, schedule: Q#A X Z (ip), vehicle: carboxymethylcellulose (CMC)
  T/C: 110 % of control
dose: 0.25 mg/kg/injection, schedule: Q01DX001 (ip), vehicle: carboxymethylcellulose (CMC)
  T/C: 105 % of control
dose: 0.3 mg/kg/injection, schedule: Q01DX Z (ip), vehicle: saline
  T/C: 159 % of control
dose: 0.3 mg/kg/injection, schedule: Q03DX006 (ip), vehicle: carboxymethylcellulose (CMC)
  T/C: 109 % of control
dose: 0.32 mg/kg/injection, schedule: Q07DX003 (ip), vehicle: carboxymethylcellulose (CMC)
  T/C: 102 % of control
dose: 0.37 mg/kg/injection, schedule: Q#A X Z (ip), vehicle: carboxymethylcellulose (CMC)
  T/C: 119 % of control
dose: 0.38 mg/kg/injection, schedule: Q01DX006 (iv), vehicle: carboxymethylcellulose (CMC)
  T/C: 91 % of control
dose: 0.38 mg/kg/injection, schedule: Q01DX Z (im), vehicle: carboxymethylcellulose (CMC)
  T/C: 98 % of control
dose: 0.38 mg/kg/injection, schedule: Q01DX Z (sc), vehicle: carboxymethylcellulose (CMC)
  T/C: 104 % of control
dose: 0.5 mg/kg/injection, schedule: Q01DX001 (ip), vehicle: carboxymethylcellulose (CMC)
  T/C: 170 % of control
dose: 0.6 mg/kg/injection, schedule: Q03DX006 (ip), vehicle: carboxymethylcellulose (CMC)
  T/C: 170 % of control
dose: 0.63 mg/kg/injection, schedule: Q07DX003 (ip), vehicle: carboxymethylcellulose (CMC)
  T/C: 121 % of control
dose: 0.7 mg/kg/injection, schedule: Q01DX Z (ip), vehicle: saline
  T/C: 101 % of control
dose: 0.75 mg/kg/injection, schedule: Q01DX006 (iv), vehicle: carboxymethylcellulose (CMC)
  T/C: 110 % of control
dose: 0.75 mg/kg/injection, schedule: Q01DX015 (ip), vehicle: carboxymethylcellulose (CMC)
  T/C: 178 % of control
dose: 0.75 mg/kg/injection, schedule: Q01DX Z (im), vehicle: carboxymethylcellulose (CMC)
  T/C: 101 % of control
dose: 0.75 mg/kg/injection, schedule: Q01DX Z (ip), vehicle: carboxymethylcellulose (CMC)
  T/C: 119 % of control
dose: 0.75 mg/kg/injection, schedule: Q01DX Z (sc), vehicle: carboxymethylcellulose (CMC)
  T/C: 107 % of control
dose: 0.8 mg/kg/injection, schedule: Q01DX Z (ip), vehicle: other
  T/C: 109 % of control
dose: 1.1 mg/kg/injection, schedule: Q01DX015 (ip), vehicle: carboxymethylcellulose (CMC)
  T/C: 182 % of control
dose: 1.1 mg/kg/injection, schedule: Q03DX006 (ip), vehicle: carboxymethylcellulose (CMC)
  T/C: 181 % of control
dose: 1.2 mg/kg/injection, schedule: Q01DX Z (ip), vehicle: alkali diluted with saline
  T/C: 118 % of control
dose: 1.2 mg/kg/injection, schedule: Q01DX Z (ip), vehicle: saline
  T/C: 159 % of control
dose: 1.25 mg/kg/injection, schedule: Q07DX003 (ip), vehicle: carboxymethylcellulose (CMC)
  T/C: 114 % of control and 201 % of control
dose: 1.3 mg/kg/injection, schedule: Q01DX Z (ip), vehicle: other
  T/C: 120 % of control
dose: 1.5 mg/kg/injection, schedule: Q01DX006 (iv), vehicle: carboxymethylcellulose (CMC)
  T/C: 104 % of control and 109 % of control
dose: 1.5 mg/kg/injection, schedule: Q01DX Z (im), vehicle: carboxymethylcellulose (CMC)
  T/C: 108 % of control
dose: 1.5 mg/kg/injection, schedule: Q01DX Z (ip), vehicle: carboxymethylcellulose (CMC)
  T/C: 115 % of control
dose: 1.5 mg/kg/injection, schedule: Q01DX Z (oral), vehicle: carboxymethylcellulose (CMC)
  T/C: 119 % of control
dose: 1.5 mg/kg/injection, schedule: Q01DX Z (sc), vehicle: carboxymethylcellulose (CMC)
  T/C: 115 % of control
dose: 1.5 mg/kg/injection, schedule: Q#A X Z (ip), vehicle: carboxymethylcellulose (CMC)
  T/C: 111 % of control
dose: 1.6 mg/kg/injection, schedule: Q01DX001 (ip), vehicle: gum acacia
  T/C: 110 % of control
dose: 1.7 mg/kg/injection, schedule: Q01DX015 (ip), vehicle: carboxymethylcellulose (CMC)
  T/C: 170 % of control
dose: 1.8 mg/kg/injection, schedule: Q01DX Z (ip), vehicle: alkali diluted with saline
  T/C: 112 % of control
dose: 1.8 mg/kg/injection, schedule: Q01DX Z (ip), vehicle: other
  T/C: 109 % of control
dose: 2.0 mg/kg/injection, schedule: Q01DX001 (ip), vehicle: carboxymethylcellulose (CMC)
  T/C: 109 % of control and 123 % of control
dose: 2.4 mg/kg/injection, schedule: Q01DX001 (ip), vehicle: gum acacia
  T/C: 186 % of control
dose: 2.5 mg/kg/injection, schedule: Q01DX Z (ip), vehicle: alkali diluted with saline
  T/C: 116 % of control
dose: 2.7 mg/kg/injection, schedule: Q01DX Z (ip), vehicle: other
  T/C: 124 % of control
dose: 3.0 mg/kg/injection, schedule: Q01DX006 (iv), vehicle: carboxymethylcellulose (CMC)
  T/C: 112 % of control
dose: 3.0 mg/kg/injection, schedule: Q01DX Z (ip), vehicle: carboxymethylcellulose (CMC)
  T/C: 105 % of control and 115 % of control
dose: 3.0 mg/kg/injection, schedule: Q01DX Z (ip), vehicle: saline
  T/C: 112 % of control
dose: 3.6 mg/kg/injection, schedule: Q01DX001 (ip), vehicle: carboxymethylcellulose (CMC)
  T/C: 163 % of control
dose: 3.6 mg/kg/injection, schedule: Q01DX001 (ip), vehicle: gum acacia
  T/C: 150 % of control
dose: 3.7 mg/kg/injection, schedule: Q01DX Z (ip), vehicle: saline
  T/C: 90 % of control
dose: 4.5 mg/kg/injection, schedule: Q03DX006 (ip), vehicle: carboxymethylcellulose (CMC)
  T/C: 111 % of control
dose: 5.0 mg/kg/injection, schedule: Q01DX001 (ip), vehicle: carboxymethylcellulose (CMC)
  T/C: 161 % of control
dose: 5.0 mg/kg/injection, schedule: Q07DX003 (ip), vehicle: carboxymethylcellulose (CMC)
  T/C: 188 % of control
dose: 5.4 mg/kg/injection, schedule: Q01DX001 (ip), vehicle: gum acacia
  T/C: 172 % of control and 330 % of control
dose: 6.0 mg/kg/injection, schedule: Q01DX Z (im), vehicle: carboxymethylcellulose (CMC)
  T/C: 95 % of control
dose: 6.0 mg/kg/injection, schedule: Q01DX Z (oral), vehicle: carboxymethylcellulose (CMC)
  T/C: 104 % of control
dose: 6.0 mg/kg/injection, schedule: Q01DX Z (sc), vehicle: carboxymethylcellulose (CMC)
  T/C: 105 % of control
dose: 6.0 mg/kg/injection, schedule: Q#A X Z (ip), vehicle: carboxymethylcellulose (CMC)
  T/C: 154 % of control
dose: 10.0 mg/kg/injection, schedule: Q01DX001 (ip), vehicle: carboxymethylcellulose (CMC)
  T/C: 105 % of control and 123 % of control
dose: 12.0 mg/kg/injection, schedule: Q01DX006 (iv), vehicle: carboxymethylcellulose (CMC)
  T/C: 115 % of control
dose: 20.0 mg/kg/injection, schedule: Q01DX001 (ip), vehicle: carboxymethylcellulose (CMC)
  T/C: 120 % of control
dose: 29.0 micrograms/kg/injection, schedule: Q01DX Z (ip), vehicle: saline
  T/C: 119 % of control
dose: 44.0 micrograms/kg/injection, schedule: Q01DX Z (ip), vehicle: saline
  T/C: 121 % of control
dose: 100.0 micrograms/kg/injection, schedule: Q01DX Z (ip), vehicle: saline
  T/C: 113 % of control

## Cc1c2ccccc2cc2[n+]1CCc1ccccc1-2
dose: 50.0 mg/kg/injection, schedule: Q04DX003 (ip), vehicle: saline with Tween-80
  T/C: 100 % of control
dose: 100.0 mg/kg/injection, schedule: Q01DX001 (ip), vehicle: saline with Tween-80
  T/C: 98 % of control
dose: 100.0 mg/kg/injection, schedule: Q04DX003 (ip), vehicle: saline with Tween-80
  T/C: 105 % of control
dose: 200.0 mg/kg/injection, schedule: Q01DX001 (ip), vehicle: saline with Tween-80
  T/C: 96 % of control
dose: 200.0 mg/kg/injection, schedule: Q04DX003 (ip), vehicle: saline with Tween-80
  T/C: 107 % of control

## O=C(NC(c1ccccc1)C(Cl)(Cl)Cl)c1ccccc1 (configuration not stated)
dose: 50.0 mg/kg/injection, schedule: Q01DX009 (ip), vehicle: Klucel (hydroxypropylcellulose) (HPC)
  T/C: 97 % of control
dose: 100.0 mg/kg/injection, schedule: Q01DX009 (ip), vehicle: Klucel (hydroxypropylcellulose) (HPC)
  T/C: 97 % of control
dose: 200.0 mg/kg/injection, schedule: Q01DX009 (ip), vehicle: Klucel (hydroxypropylcellulose) (HPC)
  T/C: 97 % of control

Source: PubChem BioAssay AID248 (DTP/NCI, 2004)
